Data published in patent US10696615B2, “Prenylated hydroxystilbenes” (The University of Sydney, priority 2011, dated 2020).

Key:
Assay type in all cases: cell-based, human
[1] = tested on: NCI-H23; experiment: NCI in vitro cancer screen, Non-Small Cell Lung Cancer; conditions: NCI-H23
[2] = tested on: OVCAR-5; experiment: NCI in vitro cancer screen, Ovarian Cancer; conditions: OVCAR-5; for GI50 / CC50: Homo sapiens; for CC50: read-out: LC50 (the source's name)
[3] = tested on: COLO 205; experiment: NCI in vitro cancer screen, Colon Cancer; conditions: COLO 205; for GI50 / CC50: Homo sapiens; for CC50: read-out: LC50 (the source's name)
[4] = tested on: KM12; experiment: NCI in vitro cancer screen, Colon Cancer; conditions: KM12; for GI50 / CC50: Homo sapiens; for CC50: read-out: LC50 (the source's name)
[5] = tested on: NCI-H522; experiment: NCI in vitro cancer screen, Non-Small Cell Lung Cancer; conditions: NCI-H522; for GI50 / CC50: Homo sapiens; for CC50: read-out: LC50 (the source's name)
[6] = tested on: ACHN; experiment: NCI in vitro cancer screen, Renal Cancer; conditions: for GI50 / CC50: Homo sapiens; for CC50: read-out: LC50 (the source's name)
[7] = tested on: SK-MEL-28; experiment: NCI in vitro cancer screen, Melanoma; conditions: SK-MEL-28
[8] = tested on: M14; experiment: NCI in vitro cancer screen, Melanoma; conditions: M14; for GI50 / CC50: Homo sapiens; for CC50: read-out: LC50 (the source's name)
[9] = tested on: U251; experiment: NCI in vitro cancer screen, CNS Cancer; conditions: U251; for GI50 / CC50: Homo sapiens, U-251; for CC50: read-out: LC50 (the source's name)
[10] = tested on: NCI-H460; experiment: NCI in vitro cancer screen, Non-Small Cell Lung Cancer; conditions: NCI-H460; for GI50 / CC50: Homo sapiens; for CC50: read-out: LC50 (the source's name)
[11] = tested on: HCC-2998; experiment: NCI in vitro cancer screen, Colon Cancer; conditions: HCC-2998; for GI50 / CC50: Homo sapiens; for CC50: read-out: LC50 (the source's name)
[12] = tested on: PC-3; experiment: NCI in vitro cancer screen, Prostate Cancer; conditions: PC-3; for GI50 / CC50: Homo sapiens; for CC50: read-out: LC50 (the source's name)
[13] = tested on: MALME-3M; experiment: NCI in vitro cancer screen, Melanoma; conditions: for GI50 / CC50: Homo sapiens, Malme-3M; for CC50: read-out: LC50 (the source's name); for TGI: MALME-3M
[14] = tested on: SK-MEL-2; experiment: NCI in vitro cancer screen, Melanoma; conditions: SK-MEL-2
[15] = tested on: OVCAR-4; experiment: NCI in vitro cancer screen, Ovarian Cancer; conditions: OVCAR-4; for GI50 / CC50: Homo sapiens; for CC50: read-out: LC50 (the source's name)
[16] = tested on: SK-OV-3; experiment: NCI in vitro cancer screen, Ovarian Cancer; conditions: SK-OV-3; for GI50 / CC50: Homo sapiens; for CC50: read-out: LC50 (the source's name)
[17] = tested on: HCT-15; experiment: NCI in vitro cancer screen, Colon Cancer; conditions: HCT-15; for GI50 / CC50: Homo sapiens; for CC50: read-out: LC50 (the source's name)
[18] = tested on: CCRF-CEM; experiment: NCI in vitro cancer screen, Leukemia; conditions: for GI50 / CC50: Homo sapiens; for CC50: read-out: LC50 (the source's name)
[19] = tested on: MDA-MB-231 (MDA-MB-231/ATCC); experiment: NCI in vitro cancer screen, Breast Cancer; conditions: MDA-MB-231; for GI50 / CC50: Homo sapiens; for CC50: read-out: LC50 (the source's name)
[20] = tested on: UACC-62; experiment: NCI in vitro cancer screen, Melanoma; conditions: UACC-62; for GI50 / CC50: Homo sapiens; for CC50: read-out: LC50 (the source's name)
[21] = tested on: HOP-92; experiment: NCI in vitro cancer screen, Non-Small Cell Lung Cancer; conditions: HOP-92; for GI50 / CC50: Homo sapiens; for CC50: read-out: LC50 (the source's name)
[22] = tested on: MOLT-4; experiment: NCI in vitro cancer screen, Leukemia; conditions: MOLT-4; for GI50 / CC50: Homo sapiens; for CC50: read-out: LC50 (the source's name)
[23] = tested on: DU-145; experiment: NCI in vitro cancer screen, Prostate Cancer; conditions: DU-145; for GI50 / CC50: Homo sapiens; for CC50: read-out: LC50 (the source's name)
[24] = tested on: CAKI-1; experiment: NCI in vitro cancer screen, Renal Cancer; conditions: CAKI-1; for GI50 / CC50: Homo sapiens; for CC50: read-out: LC50 (the source's name)
[25] = tested on: SK-MEL-5; experiment: NCI in vitro cancer screen, Melanoma; conditions: SK-MEL-5; for GI50 / CC50: Homo sapiens; for CC50: read-out: LC50 (the source's name)
[26] = tested on: OVCAR-8; experiment: NCI in vitro cancer screen, Ovarian Cancer; conditions: OVCAR-8; for GI50 / CC50: Homo sapiens; for CC50: read-out: LC50 (the source's name)
[27] = tested on: SNB-19; experiment: NCI in vitro cancer screen, CNS Cancer; conditions: SNB-19; for GI50 / CC50: Homo sapiens; for CC50: read-out: LC50 (the source's name)
[28] = tested on: HCT-116; experiment: NCI in vitro cancer screen, Colon Cancer; conditions: HCT-116
[29] = tested on: ADR-RES (NCI/ADR-RES); experiment: NCI in vitro cancer screen, Ovarian Cancer; conditions: for GI50 / CC50: Homo sapiens, NCI/ADR-RES; for CC50: read-out: LC50 (the source's name)
[30] = tested on: LOX IMVI; experiment: NCI in vitro cancer screen, Melanoma; conditions: for GI50 / CC50: Homo sapiens; for CC50: read-out: LC50 (the source's name)

COc1cc(/C=C/c2cc(O)cc(OC)c2CC=C(C)C)ccc1O [USYDS1, (E)-2-(3-methyl-2-buten-1-yl)-4′,5-dihydroxy-3,3′-dimethoxystilbene]
GI50 ([1]; Homo sapiens): 0.28 µM | LC50 ([1]; Homo sapiens): 62.5 µM | TGI [1]: 15.1 µM | GI50 [2]: 6 µM | CC50 [2]: 55.3 µM | TGI [2]: 21.4 µM | TGI [3]: 16.1 µM | GI50 [3]: 3.86 µM | CC50 [3]: 42.6 µM | GI50 [4]: 0.32 µM | CC50 [4]: 46.7 µM | TGI [4]: 13.9 µM | GI50 [5]: 0.02 µM | CC50 [5]: 44.8 µM | TGI [6]: 14.0 µM | GI50 [6]: 0.07 µM | CC50 [6]: 44.6 µM | GI50 ([7]; Homo sapiens): 10.9 µM | LC50 ([7]; Homo sapiens): 51.7 µM | TGI [7]: 23.8 µM | GI50 [8]: 0.04 µM | CC50 [8]: 44 µM | TGI [8]: 13.9 µM | GI50 [9]: 0.37 µM | CC50 [9]: 36 µM | TGI [9]: 10.9 µM | GI50 [10]: 0.23 µM | CC50 [10]: 42 µM | TGI [10]: 1.38 µM | TGI [11]: 11.5 µM | GI50 [11]: 1.07 µM | CC50 [11]: 35.8 µM | GI50 [12]: 0.42 µM | CC50 [12]: 47.9 µM | TGI [12]: 16.1 µM | GI50 [13]: 3.47 µM | CC50 [13]: 78.3 µM | TGI [13]: 25.8 µM | GI50 ([14]; Homo sapiens): 0.32 µM | LC50 ([14]; Homo sapiens): 38 µM | TGI [14]: 10.6 µM | GI50 [15]: 0.58 µM | CC50 [15]: 52 µM | TGI [15]: 18.4 µM | GI50 [16]: 0.19 µM | CC50 [16]: 34.7 µM | TGI [16]: 11.6 µM | TGI [17]: 16.1 µM | GI50 [17]: 0.05 µM | CC50 [17]: > 100 µM | TGI [18]: 24.6 µM | GI50 [18]: 0.35 µM | CC50 [18]: > 100 µM | GI50 [19]: 0.15 µM | CC50 [19]: 61.2 µM | TGI [19]: 2.43 µM | GI50 [20]: 1.62 µM | CC50 [20]: 46.6 µM | TGI [20]: 18.3 µM | TGI [21]: 12.3 µM | GI50 [21]: 0.06 µM | CC50 [21]: 39.6 µM | GI50 [22]: 0.43 µM | CC50 [22]: 80.2 µM | TGI [22]: 12.3 µM | TGI [23]: 12.7 µM | GI50 [23]: 0.06 µM | CC50 [23]: 38.6 µM | TGI [24]: 39.3 µM | GI50 [24]: 4.77 µM | CC50 [24]: > 100 µM | GI50 [25]: 0.05 µM | CC50 [25]: 5.99 µM | TGI [25]: 0.75 µM | GI50 [26]: 0.08 µM | CC50 [26]: 50 µM | TGI [26]: 11.7 µM | GI50 [27]: 0.17 µM | CC50 [27]: 51.5 µM | TGI [27]: 19.3 µM | TGI [28]: 11.1 µM | GI50 ([28]; Homo sapiens): 0.3 µM | LC50 (concentration killing 50% of cells) ([28]; Homo sapiens): 40.4 µM | GI50 [29]: 0.03 µM | CC50 [29]: 70.7 µM | TGI [30]: 16.2 µM | GI50 [30]: 0.05 µM | CC50 [30]: 58.8 µM

CC(C)=CCc1c(O)cc(/C=C/c2ccc(O)cc2)c(CC=C(C)C)c1O [USYDS6, (E)-2,4-di(3-methyl-2-buten-1-yl)-3,4′,5-trihydroxystilbene]
GI50 ([1]; Homo sapiens): 3.38 µM | TGI [1]: 15.7 µM | GI50 [2]: 5.86 µM | CC50 [2]: 53.3 µM | TGI [2]: 20.0 µM | TGI [3]: 30.2 µM | GI50 [3]: 16 µM | CC50 [3]: 57.2 µM | GI50 [4]: 2.21 µM | CC50 [4]: 8.64 µM | TGI [4]: 4.37 µM | GI50 [5]: 2.18 µM | CC50 [5]: 17.8 µM | TGI [5]: 5.15 µM | TGI [6]: 14.6 µM | GI50 [6]: 3.94 µM | CC50 [6]: 50.4 µM | GI50 ([7]; Homo sapiens): 11.2 µM | TGI [7]: 24.0 µM | GI50 [8]: 2.82 µM | CC50 [8]: 33.4 µM | TGI [8]: 8.46 µM | GI50 [9]: 2.33 µM | CC50 [9]: 16.7 µM | TGI [9]: 5.31 µM | GI50 [10]: 1.89 µM | CC50 [10]: 8.06 µM | TGI [10]: 3.90 µM | TGI [11]: 8.78 µM | GI50 [11]: 2.81 µM | CC50 [11]: 32.2 µM | GI50 [12]: 1.8 µM | CC50 [12]: 8.44 µM | TGI [12]: 3.89 µM | GI50 [13]: 2.8 µM | CC50 [13]: 37.1 µM | TGI [13]: 8.56 µM | GI50 ([14]; Homo sapiens): 13.1 µM | TGI [14]: 33.6 µM | GI50 [15]: 4.4 µM | CC50 [15]: 43.5 µM | TGI [15]: 16.1 µM | GI50 [16]: 13.9 µM | CC50 [16]: 53.2 µM | TGI [16]: 27.1 µM | TGI [17]: 6.26 µM | GI50 [17]: 2.13 µM | CC50 [17]: 48.2 µM | TGI [18]: 9.17 µM | GI50 [18]: 2.96 µM | CC50 [18]: 82.1 µM | GI50 [19]: 1.72 µM | CC50 [19]: 17.2 µM | TGI [19]: 4.54 µM | GI50 [20]: 10.3 µM | CC50 [20]: 53.8 µM | TGI [20]: 23.5 µM | TGI [21]: 4.67 µM | GI50 [21]: 1.86 µM | CC50 [21]: 14.5 µM | GI50 [22]: 1.59 µM | CC50 [22]: 16.8 µM | TGI [22]: 4.27 µM | TGI [23]: 12.9 µM | GI50 [23]: 3.47 µM | CC50 [23]: 40.1 µM | TGI [24]: 22.6 µM | GI50 [24]: 8.37 µM | CC50 [24]: 55.7 µM | GI50 [25]: 2.29 µM | CC50 [25]: 22.1 µM | TGI [25]: 6.17 µM | GI50 [26]: 2.95 µM | CC50 [26]: 42.9 µM | TGI [26]: 9.51 µM | GI50 [27]: 6.38 µM | CC50 [27]: 52.7 µM | TGI [27]: 20.6 µM | TGI [28]: 3.78 µM | GI50 ([28]; Homo sapiens): 1.89 µM | TGI ([29]; ADR-RES): 15.2 µM | GI50 [29]: 3.46 µM | CC50 [29]: 51.2 µM | TGI [30]: 3.42 µM | GI50 [30]: 1.76 µM | CC50 [30]: 6.68 µM
